Assay results taken from patent US20240174649A1, “CULLIN-RING E3 UBIQUITIN LIGASE 4 INHIBITOR COMPOUNDS AND METHODS OF THEIR USE” (ICAHN SCHOOL OF MEDICINE AT MOUNT SINAI, priority 2021, published 2024).

Tests used:
ROC1-CUL3 = ROC1-CUL3 (Homo sapiens (Human), UniProt Q13618); experiment: Gel-based di-Ub synthesis; format: biochemical; conditions: up to 150 μM
Nedd8-ROC1-CUL4A = Nedd8-ROC1-CUL4A (Homo sapiens (Human), UniProt Q13619); experiment: Ub chain assembly measured by Coomassie stain; format: biochemical; conditions: 10 μM
Procedure: (§1) Reaction mixture contained 2 mM ATP, 10 mM MgCl2, 0.01 μg/μl of GST-E1 (Ub), 0.01 μg/μl of Cdc34, 0.1 μg/μl of Nedd8-ROC1-CUL1 or Nedd8-ROC1-CUL4A, and 1 μg/μl of Ub. Where indicated, DMSO and compound were added. The reaction was incubated at 37° C. for 60 min. Following separation of reaction products by SDS-PAGE, proteins were visualized by Coomassie stain.

Nedd8-ROC1-CUL1 = Nedd8-ROC1-CUL1 (Homo sapiens (Human), UniProt Q13616); experiment: Ub chain assembly measured by Coomassie stain; format: biochemical
Procedure: as §1

[1] = In vitro stability in mouse, rat and human microsomes; format: in vitro ADME
Procedure: ADME studies on compounds #33-11 and KH-4-43 for “absorption, distribution, metabolism, and excretion” were carried out at CRO, BioDuro. Kinetic solubility, plasma and microsome stability in rat, mouse and human, as well as Caco-2 Permeability were examined.

E3 (CUL1) = E3 (CUL1) (Homo sapiens (Human), UniProt Q13616); experiment: E3 (CUL1) inhibition (Table 1); format: biochemical
Procedure: The reaction mixture (15 μl) was assembled onto a 384-well microtiter plate. […] ATP (0.66 mM) was then added to the mix followed by a brief centrifugation to settle down the mixture. The resulting plate was incubated at 30° C. in the Synergy-H1 reader and the fluorescence signal was monitored. Ubiquitination was quantified based on the ratio of acceptor:donor fluorescence (excitation 515 nm; donor emission 570 nm, acceptor emission 670 nm).

CRL1/SCF = CRL1/SCF (Homo sapiens, UniProt Q13616)
MV4-11 cells = experiment: Cell viability assay (CellTiter-Glo); format: cell-based; conditions: Homo sapiens; MV4-11, 48 hours
Procedure: The ability of #33-11 to induce apoptosis was measured by Annexin V flow cytometry (FIG. 1A). EC50/EC90 for each cell line are indicated. […] Mouse pancreatic cancer cell lines K8484 and DT8082 were isolated from the KPC mice (Olive et al., “Inhibition of Hedgehog Signaling Enhances Delivery of Chemotherapy in a Mouse Model of Pancreatic Cancer,” Science 324(5933):1457-1461 (2009), which is hereby incorporated by reference in its entirety), the rest (34 in total) are all human cancer cell lines. Washout: MV4-11 cells at 10^5 cells/ml were treated with compound at concentrations as indicated (FIG. 1C). At specified hours post compound treatment, the cells were washed once with fresh complete media without compound and allowed to grow for additional 48 hours followed by viability test as in FIG. 1B.
For cell viability assay, 10,000 cells (per well) were seeded in 96 well plates in 100 microliters of media and incubated overnight. Serial dilutions of compounds tested were then added to wells in triplicate. […] The luminescence of each well was then read using a Synergy multi-mode plate reader (BioTek). For determining relative luminescence, the background (average reading of wells containing only media and CellTiter-Glo reagent, no cells) was first subtracted from the reading of each sample. […] Then EC50 was determined using the four parameter logistics regression standard curve.

Sequence of Nedd8-ROC1-CUL1 (Q13616 whole entry): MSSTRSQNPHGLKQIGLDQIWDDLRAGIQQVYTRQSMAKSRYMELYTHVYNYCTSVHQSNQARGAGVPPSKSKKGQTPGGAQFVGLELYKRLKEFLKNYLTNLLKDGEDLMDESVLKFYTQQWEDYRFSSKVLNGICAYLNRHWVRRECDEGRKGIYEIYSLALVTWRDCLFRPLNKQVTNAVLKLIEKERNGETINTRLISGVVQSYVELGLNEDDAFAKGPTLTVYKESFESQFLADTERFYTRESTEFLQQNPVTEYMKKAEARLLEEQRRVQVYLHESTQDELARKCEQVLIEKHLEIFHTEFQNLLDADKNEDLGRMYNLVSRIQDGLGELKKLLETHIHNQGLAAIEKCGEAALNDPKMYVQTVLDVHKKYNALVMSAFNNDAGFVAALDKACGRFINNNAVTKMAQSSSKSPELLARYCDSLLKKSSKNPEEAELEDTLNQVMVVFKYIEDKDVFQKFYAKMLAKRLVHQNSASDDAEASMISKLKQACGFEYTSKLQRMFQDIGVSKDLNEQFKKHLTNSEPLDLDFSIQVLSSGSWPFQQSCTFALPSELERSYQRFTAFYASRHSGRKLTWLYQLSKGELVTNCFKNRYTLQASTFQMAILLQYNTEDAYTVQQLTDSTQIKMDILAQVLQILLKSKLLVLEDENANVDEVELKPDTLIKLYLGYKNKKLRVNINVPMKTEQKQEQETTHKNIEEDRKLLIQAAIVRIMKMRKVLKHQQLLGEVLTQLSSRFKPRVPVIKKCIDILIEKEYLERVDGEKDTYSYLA
Sequence of Nedd8-ROC1-CUL1 (P62877 whole entry partner): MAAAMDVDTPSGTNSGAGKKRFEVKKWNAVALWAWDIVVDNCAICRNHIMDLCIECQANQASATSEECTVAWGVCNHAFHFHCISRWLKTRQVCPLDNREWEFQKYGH
Sequence of Nedd8-ROC1-CUL1 (Q15843 1-76 partner): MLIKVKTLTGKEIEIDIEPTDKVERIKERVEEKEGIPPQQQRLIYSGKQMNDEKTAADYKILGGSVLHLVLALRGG
Sequence of E3 (CUL1) (Q13616 whole entry): as the sequence (Q13616 whole entry) above
Sequence of E3 (CUL1) (P62877 whole entry partner): as the sequence (P62877 whole entry partner) above
Sequence of Nedd8-ROC1-CUL4A (Q13619 39-759 limits assumed): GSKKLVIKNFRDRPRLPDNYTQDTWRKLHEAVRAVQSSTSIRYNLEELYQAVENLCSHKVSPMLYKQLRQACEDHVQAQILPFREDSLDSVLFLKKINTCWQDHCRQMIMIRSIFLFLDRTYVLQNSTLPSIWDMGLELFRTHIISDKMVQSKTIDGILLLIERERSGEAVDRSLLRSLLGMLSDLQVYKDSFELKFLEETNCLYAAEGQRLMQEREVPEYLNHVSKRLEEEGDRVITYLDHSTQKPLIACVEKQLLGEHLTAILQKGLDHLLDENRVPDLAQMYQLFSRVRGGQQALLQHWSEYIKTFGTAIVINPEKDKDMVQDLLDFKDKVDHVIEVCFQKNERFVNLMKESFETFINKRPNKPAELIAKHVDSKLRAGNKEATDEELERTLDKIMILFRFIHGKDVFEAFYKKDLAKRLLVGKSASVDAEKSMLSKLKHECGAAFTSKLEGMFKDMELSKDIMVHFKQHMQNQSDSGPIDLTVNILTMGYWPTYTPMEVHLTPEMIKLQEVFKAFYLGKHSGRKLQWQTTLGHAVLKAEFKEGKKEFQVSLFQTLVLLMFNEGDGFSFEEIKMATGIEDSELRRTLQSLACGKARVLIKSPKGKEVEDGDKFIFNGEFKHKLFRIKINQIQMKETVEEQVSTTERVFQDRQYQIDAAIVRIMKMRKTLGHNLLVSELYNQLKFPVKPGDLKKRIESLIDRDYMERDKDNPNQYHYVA
Sequence of Nedd8-ROC1-CUL4A (P62877 15-108 partner limits assumed): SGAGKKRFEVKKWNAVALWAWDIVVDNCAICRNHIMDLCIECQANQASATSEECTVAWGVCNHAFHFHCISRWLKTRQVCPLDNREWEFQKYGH
Sequence of Nedd8-ROC1-CUL4A (Q15843 1-76 partner limits assumed): as the sequence (Q15843 1-76 partner) above
Sequence of ROC1-CUL3 (Q13618 whole entry): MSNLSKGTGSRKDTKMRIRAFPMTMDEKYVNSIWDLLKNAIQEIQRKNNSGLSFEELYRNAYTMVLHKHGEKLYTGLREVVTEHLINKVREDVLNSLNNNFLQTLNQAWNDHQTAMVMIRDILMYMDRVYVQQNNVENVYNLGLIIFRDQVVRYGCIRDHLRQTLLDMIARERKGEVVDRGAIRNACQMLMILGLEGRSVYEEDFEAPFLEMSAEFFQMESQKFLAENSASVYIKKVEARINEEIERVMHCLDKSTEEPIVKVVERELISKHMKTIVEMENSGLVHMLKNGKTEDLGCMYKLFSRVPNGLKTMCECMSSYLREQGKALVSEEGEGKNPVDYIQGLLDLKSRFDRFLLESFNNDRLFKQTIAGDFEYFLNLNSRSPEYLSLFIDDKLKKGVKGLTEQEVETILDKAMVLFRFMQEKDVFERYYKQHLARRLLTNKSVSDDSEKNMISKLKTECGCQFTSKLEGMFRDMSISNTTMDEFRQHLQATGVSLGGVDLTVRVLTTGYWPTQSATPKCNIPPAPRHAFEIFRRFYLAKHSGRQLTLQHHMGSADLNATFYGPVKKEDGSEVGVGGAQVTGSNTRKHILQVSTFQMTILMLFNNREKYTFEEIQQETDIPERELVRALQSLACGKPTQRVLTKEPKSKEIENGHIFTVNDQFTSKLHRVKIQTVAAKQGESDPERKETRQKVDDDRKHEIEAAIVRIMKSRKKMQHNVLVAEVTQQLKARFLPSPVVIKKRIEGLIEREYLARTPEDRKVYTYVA
Sequence of ROC1-CUL3 (P62877 whole entry partner): as the sequence (P62877 whole entry partner) above

Row | SMILES | level of di-Ub product (ROC1-CUL3) | effect on Ub chain assembly (Nedd8-ROC1-CUL4A) | effect on Ub chain assembly (Nedd8-ROC1-CUL1; 1 mM) | effect on Ub chain assembly (Nedd8-ROC1-CUL1; 10 or 100 μM) | half-life [1] | EC50 (E3 (CUL1)) | dose range inhibiting ubiquitination by CRL1/SCF (CRL1/SCF) | EC50 (MV4-11 cells)
1 | O=c1c(-c2cnn(-c3ccccc3)c2)c(C(F)(F)F)oc2c(O)c(O)ccc12 [#33-11, 7,8-dihydroxy-3-(1-phenyl-1H-pyrazol-4-yl)-2-(trifluoromethyl)-4H-chromen-4-one] | remained almost unchanged | block the utilization of free Ub | blocked the utilization of Ub | little effect |  |  |  | 
2 | O=c1c(-c2cnn(-c3ccc(Cl)cc3)c2)c(C(F)(F)F)oc2c(O)c(O)ccc12 [KH-4-43, 3-(1-(4-chlorophenyl)-1H-pyrazol-4-yl)-7,8-dihydroxy-2-(trifluoromethyl)-4H-chromen-4-one] |  |  |  |  | > 5 h | 7 µM | ~30 µM | 3 µM
